Paper PMC6463794, “Inhibition of CDC25B With WG-391D Impedes the Tumorigenesis of Ovarian Cancer” (Frontiers in Oncology, 2019)

Biological target: T1, CDC25B (Homo sapiens, UniProt P30305)
T1 construct: recombinant CDC25B protein
T1 sequence (P30305 1-580): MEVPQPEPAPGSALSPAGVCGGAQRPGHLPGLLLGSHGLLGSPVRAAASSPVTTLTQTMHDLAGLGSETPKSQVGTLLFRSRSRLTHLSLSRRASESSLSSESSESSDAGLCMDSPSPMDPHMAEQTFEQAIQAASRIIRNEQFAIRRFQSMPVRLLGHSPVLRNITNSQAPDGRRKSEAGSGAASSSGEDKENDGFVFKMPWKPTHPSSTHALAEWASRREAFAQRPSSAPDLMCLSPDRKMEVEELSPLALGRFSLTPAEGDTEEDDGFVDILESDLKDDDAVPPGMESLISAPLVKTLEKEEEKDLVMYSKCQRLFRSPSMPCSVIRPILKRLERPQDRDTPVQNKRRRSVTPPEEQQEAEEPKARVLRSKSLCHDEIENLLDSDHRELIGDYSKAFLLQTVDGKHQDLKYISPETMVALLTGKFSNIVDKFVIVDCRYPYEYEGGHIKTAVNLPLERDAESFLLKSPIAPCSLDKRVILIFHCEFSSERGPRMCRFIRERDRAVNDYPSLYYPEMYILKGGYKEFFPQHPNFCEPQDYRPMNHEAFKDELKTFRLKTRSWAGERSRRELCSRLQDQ
Assay: fluorometric phosphatase assay (3-O-methylfluorescein phosphate) with recombinant CDC25B; positive-control inhibitor, single concentration
Assay type: biochemical
Method: fluorometric phosphatase assay (3-O-methylfluorescein phosphate) with recombinant CDC25B; positive-control inhibitor, single concentration on CDC25B | CDC25B dephosphorylation catalytic activity was determined by in vitro enzyme assay. ... PC, NSC663284 served as the positive control.

For `O=C1C(Cl)=C(NCCN2CCOCC2)C(=O)c2ncccc21` [PC, NSC663284], the “fluorometric phosphatase assay (3-O-methylfluorescein phosphate) with recombinan” value was “CDC25B dephosphorylation catalytic activity was determined by in vitro enzyme assay. ... PC, NSC663284 served as the positive control”.
